Test results published in PubChem BioAssay (NCI).
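Growth conditions: 96-well plates. Treatment: test compound, 48 hours, 5 concentrations. Analysis: linear interpolation between bracketing concentrations; unreached endpoints set to highest concentration. At the GI50, growth is halved. TGI is the concentration that stops growth completely.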

Key:
Test in all cases: NCI tumour cell line growth inhibition, 48 h
786-0 renal = tested on: 786-0 renal
A498 renal = tested on: A498 renal
A549 NSCLC = tested on: A549 NSCLC
ACHN renal = tested on: ACHN renal
BT-549 breast = tested on: BT-549 breast
CAKI-1 renal = tested on: CAKI-1 renal
CCRF-CEM leukemia = tested on: CCRF-CEM leukemia
COLO 205 colon = tested on: COLO 205 colon
DU-145 prostate = tested on: DU-145 prostate
EKVX NSCLC = tested on: EKVX NSCLC
HCC-2998 colon = tested on: HCC-2998 colon
HCT-116 colon = tested on: HCT-116 colon
HCT-15 colon = tested on: HCT-15 colon
HL-60(TB) leukemia = tested on: HL-60(TB) leukemia
HOP-62 NSCLC = tested on: HOP-62 NSCLC
HOP-92 NSCLC = tested on: HOP-92 NSCLC
HS 578T breast = tested on: HS 578T breast
HT29 colon = tested on: HT29 colon
K-562 leukemia = tested on: K-562 leukemia
KM12 colon = tested on: KM12 colon
LOX IMVI melanoma = tested on: LOX IMVI melanoma
M14 melanoma = tested on: M14 melanoma
MALME-3M melanoma = tested on: MALME-3M melanoma
MCF7 breast = tested on: MCF7 breast
MDA-MB-231 breast = tested on: MDA-MB-231 breast
MDA-MB-435 = tested on: MDA-MB-435
MOLT-4 leukemia = tested on: MOLT-4 leukemia
NCI-H226 lung = tested on: NCI-H226 lung
NCI-H23 lung = tested on: NCI-H23 lung
NCI-H460 lung = tested on: NCI-H460 lung
NCI-H522 lung = tested on: NCI-H522 lung
NCI/ADR-RES ovarian = tested on: NCI/ADR-RES ovarian
OVCAR-3 ovarian = tested on: OVCAR-3 ovarian
OVCAR-4 ovarian = tested on: OVCAR-4 ovarian
OVCAR-5 ovarian = tested on: OVCAR-5 ovarian
OVCAR-8 ovarian = tested on: OVCAR-8 ovarian
PC-3 prostate = tested on: PC-3 prostate
RPMI-8226 leukemia = tested on: RPMI-8226 leukemia
RXF 393 renal = tested on: RXF 393 renal
SF-268 CNS = tested on: SF-268 CNS
SF-295 CNS = tested on: SF-295 CNS
SF-539 CNS = tested on: SF-539 CNS
SK-MEL-2 melanoma = tested on: SK-MEL-2 melanoma
SK-MEL-28 melanoma = tested on: SK-MEL-28 melanoma
SK-MEL-5 melanoma = tested on: SK-MEL-5 melanoma
SK-OV-3 ovarian = tested on: SK-OV-3 ovarian
SNB-19 CNS = tested on: SNB-19 CNS
SNB-75 CNS = tested on: SNB-75 CNS
SR leukemia = tested on: SR leukemia
SW-620 colon = tested on: SW-620 colon
T-47D breast = tested on: T-47D breast
TK-10 renal = tested on: TK-10 renal
U251 CNS = tested on: U251 CNS
UACC-257 melanoma = tested on: UACC-257 melanoma
UACC-62 melanoma = tested on: UACC-62 melanoma
UO-31 renal = tested on: UO-31 renal

CCc1nc2cc(/C=C/C(=O)NO)c(F)cc2c(=O)n1CCc1ccccc1
GI50 (786-0 renal): 1700 nM
TGI (786-0 renal): 4490 nM
GI50 (A498 renal): 1020 nM
TGI (A498 renal): 3390 nM
GI50 (A549 NSCLC): 1350 nM
TGI (A549 NSCLC): 5390 nM
GI50 (ACHN renal): 744 nM
TGI (ACHN renal): 2900 nM
GI50 (BT-549 breast): 2320 nM
TGI (BT-549 breast): 13400 nM
GI50 (CAKI-1 renal): 822 nM
TGI (CAKI-1 renal): 6200 nM
GI50 (CCRF-CEM leukemia): 564 nM
TGI (CCRF-CEM leukemia): > 100000 nM
GI50 (COLO 205 colon): 497 nM
TGI (COLO 205 colon): 3140 nM
GI50 (DU-145 prostate): 666 nM
TGI (DU-145 prostate): 10500 nM
GI50 (EKVX NSCLC): 2360 nM
TGI (EKVX NSCLC): 10700 nM
GI50 (HCC-2998 colon): 1570 nM
TGI (HCC-2998 colon): 11300 nM
GI50 (HCT-116 colon): 313 nM
TGI (HCT-116 colon): 2910 nM
GI50 (HCT-15 colon): 461 nM
TGI (HCT-15 colon): 16500 nM
GI50 (HL-60(TB) leukemia): 3710 nM
TGI (HL-60(TB) leukemia): > 100000 nM
GI50 (HOP-62 NSCLC): 1050 nM
TGI (HOP-62 NSCLC): 5980 nM
GI50 (HOP-92 NSCLC): 2510 nM
TGI (HOP-92 NSCLC): 8940 nM
GI50 (HS 578T breast): 2950 nM
TGI (HS 578T breast): 45200 nM
GI50 (HT29 colon): 588 nM
TGI (HT29 colon): 12500 nM
GI50 (K-562 leukemia): 1650 nM
TGI (K-562 leukemia): > 100000 nM
GI50 (KM12 colon): 2140 nM
TGI (KM12 colon): 15500 nM
GI50 (LOX IMVI melanoma): 488 nM
TGI (LOX IMVI melanoma): 1970 nM
GI50 (M14 melanoma): 1150 nM
TGI (M14 melanoma): 3800 nM
GI50 (MALME-3M melanoma): 944 nM
TGI (MALME-3M melanoma): 10400 nM
GI50 (MCF7 breast): 407 nM
TGI (MCF7 breast): 15100 nM
GI50 (MDA-MB-231 breast): 668 nM
TGI (MDA-MB-231 breast): 7970 nM
GI50 (MDA-MB-435): 1200 nM
TGI (MDA-MB-435): 10200 nM
GI50 (MOLT-4 leukemia): 1030 nM
TGI (MOLT-4 leukemia): > 100000 nM
GI50 (NCI-H226 lung): 1250 nM
TGI (NCI-H226 lung): 5980 nM
GI50 (NCI-H23 lung): 1170 nM
TGI (NCI-H23 lung): 4320 nM
GI50 (NCI-H460 lung): 349 nM
TGI (NCI-H460 lung): 3400 nM
GI50 (NCI-H522 lung): 502 nM
TGI (NCI-H522 lung): 3980 nM
GI50 (NCI/ADR-RES ovarian): 227 nM
TGI (NCI/ADR-RES ovarian): 2540 nM
GI50 (OVCAR-3 ovarian): 385 nM
TGI (OVCAR-3 ovarian): 4760 nM
GI50 (OVCAR-4 ovarian): 689 nM
TGI (OVCAR-4 ovarian): 17800 nM
GI50 (OVCAR-5 ovarian): 1610 nM
TGI (OVCAR-5 ovarian): 12600 nM
GI50 (OVCAR-8 ovarian): 753 nM
TGI (OVCAR-8 ovarian): 9220 nM
GI50 (PC-3 prostate): 3960 nM
TGI (PC-3 prostate): 75600 nM
GI50 (RPMI-8226 leukemia): 654 nM
TGI (RPMI-8226 leukemia): 44800 nM
GI50 (RXF 393 renal): 990 nM
TGI (RXF 393 renal): 3560 nM
GI50 (SF-268 CNS): 829 nM
TGI (SF-268 CNS): 5270 nM
GI50 (SF-295 CNS): 1890 nM
TGI (SF-295 CNS): 4350 nM
GI50 (SF-539 CNS): 874 nM
TGI (SF-539 CNS): 5800 nM
GI50 (SK-MEL-2 melanoma): 2640 nM
TGI (SK-MEL-2 melanoma): 9370 nM
GI50 (SK-MEL-28 melanoma): 1370 nM
TGI (SK-MEL-28 melanoma): 6970 nM
GI50 (SK-MEL-5 melanoma): 512 nM
TGI (SK-MEL-5 melanoma): 2520 nM
GI50 (SK-OV-3 ovarian): 1680 nM
TGI (SK-OV-3 ovarian): 5280 nM
GI50 (SNB-19 CNS): 1320 nM
TGI (SNB-19 CNS): 12400 nM
GI50 (SNB-75 CNS): 2410 nM
TGI (SNB-75 CNS): 17300 nM
GI50 (SR leukemia): 731 nM
TGI (SR leukemia): > 100000 nM
GI50 (SW-620 colon): 619 nM
TGI (SW-620 colon): 13900 nM
GI50 (T-47D breast): 290 nM
TGI (T-47D breast): 4950 nM
GI50 (TK-10 renal): 881 nM
TGI (TK-10 renal): 5490 nM
GI50 (U251 CNS): 872 nM
TGI (U251 CNS): 3180 nM
GI50 (UACC-257 melanoma): 2120 nM
TGI (UACC-257 melanoma): 7410 nM
GI50 (UACC-62 melanoma): 597 nM
TGI (UACC-62 melanoma): 3380 nM
GI50 (UO-31 renal): 735 nM
TGI (UO-31 renal): 2730 nM
